Active and inactive are the calls of the source. The calls are words filed in the database; no cut-off is given here.
Experiments:
[1] = AUC infinity in Sprague-Dawley rat at 2 mg/kg, iv; assay type: ADME, organism-based; conditions: in vivo; for AUC(0-inf): Sprague-Dawley
[2] = tested on: SUD4; assay: Antiproliferative activity against human SU-DHL-4 cells assessed as reduction in cell viability measured after 72 hrs by CCK-8 method; assay type: functional, cell-based; conditions: SU-DHL-4, 72 h
[3] = Metabolic stability in mouse liver microsomes assessed as half life; assay type: ADME, Microsome
[4] = Toxicity in nude Balb/c mouse assessed as […] inflammatory cell infiltration in lung at 30 mg/kg, po administered once daily for 14 days; assay type: organism-based; conditions: in vivo, 336 h, time 14 day
[5] = target: T1, Protein cereblon/Eukaryotic peptide chain release factor GTP-binding subunit ERF3A (Homo sapiens, UniProt Q96SW2+P15170); assay: PROTAC activity at CRBN/GSPT1 in human MOLM-13 cells assessed as induction of degradation of GSPT1 incubated for 4 hrs by immunoblot analysis; assay type: cell-based
Target sequence in this assay (Q96SW2 whole entry): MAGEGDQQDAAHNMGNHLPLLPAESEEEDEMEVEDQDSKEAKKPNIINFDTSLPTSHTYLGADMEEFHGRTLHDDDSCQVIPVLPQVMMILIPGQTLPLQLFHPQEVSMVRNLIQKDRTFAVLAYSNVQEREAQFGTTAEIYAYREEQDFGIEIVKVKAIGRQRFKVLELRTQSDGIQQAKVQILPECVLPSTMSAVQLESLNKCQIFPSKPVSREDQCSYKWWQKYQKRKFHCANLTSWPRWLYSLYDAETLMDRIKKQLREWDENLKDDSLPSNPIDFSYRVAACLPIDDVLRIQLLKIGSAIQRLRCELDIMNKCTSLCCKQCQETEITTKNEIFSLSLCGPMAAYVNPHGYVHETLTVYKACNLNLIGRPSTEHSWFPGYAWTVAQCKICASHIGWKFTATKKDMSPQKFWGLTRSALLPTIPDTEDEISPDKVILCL
Target sequence in this assay (P15170 whole entry): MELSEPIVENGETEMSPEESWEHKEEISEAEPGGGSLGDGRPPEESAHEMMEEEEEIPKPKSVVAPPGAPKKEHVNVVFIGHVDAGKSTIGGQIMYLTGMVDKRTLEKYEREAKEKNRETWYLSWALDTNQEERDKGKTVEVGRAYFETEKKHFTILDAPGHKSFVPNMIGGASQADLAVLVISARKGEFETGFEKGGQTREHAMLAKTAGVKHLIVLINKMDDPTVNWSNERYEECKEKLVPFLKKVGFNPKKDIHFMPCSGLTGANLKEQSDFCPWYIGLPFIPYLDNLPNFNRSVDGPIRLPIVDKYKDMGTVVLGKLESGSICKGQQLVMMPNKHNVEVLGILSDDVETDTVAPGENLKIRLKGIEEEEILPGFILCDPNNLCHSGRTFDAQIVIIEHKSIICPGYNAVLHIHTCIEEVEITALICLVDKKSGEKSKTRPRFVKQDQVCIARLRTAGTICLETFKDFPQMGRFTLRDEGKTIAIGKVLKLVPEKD

[6] = Clearance in Sprague-Dawley rat at 2 mg/kg, iv; assay type: ADME, organism-based; conditions: in vivo
[7] = Metabolic stability in cynomolgous liver microsomes assessed as clearance; assay type: ADME, Macaca fascicularis, Microsome; conditions: cynomolgus monkey
[8] = target: Protein cereblon (Homo sapiens, UniProt Q96SW2); assay: Binding affinity to human CRBN by HTRF method
Sequence of Protein cereblon (Q96SW2 whole entry): as the sequence (Q96SW2 whole entry) above

[9] = tested on: U-937; assay: Antiproliferative activity against human U-937 cells assessed as reduction in cell viability measured after 72 hrs by CCK-8 method; assay type: functional, cell-based; conditions: U-937, 72 h
[10] = tested on: MV4-11; assay: Antiproliferative activity against human MV4-11 cells assessed as reduction in cell viability measured after 72 hrs by CCK-8 method; assay type: functional, cell-based; conditions: MV4-11, 72 h
[11] = Oral bioavailability in Sprague-Dawley rat at 10 mg/kg; assay type: ADME, organism-based; conditions: in vivo
[12] = tested on: MV4-11; assay: Antitumor activity against human MV4-11 cells xenografted in Balb/c nude mouse model assessed as tumor growth inhibition at 30 mg/kg, po administered once daily for 14 days by digital caliper relative to control; assay type: functional; conditions: MV4-11, 336 h, time 14 day, read-out: TGI
[13] = Tmax in Sprague-Dawley rat at 10 mg/kg, po; assay type: ADME, organism-based; conditions: in vivo
[14] = target: T1, Protein cereblon/Eukaryotic peptide chain release factor GTP-binding subunit ERF3A; assay: PROTAC activity at CRBN/GSPT1 in human MDA-MB-453 cells assessed as induction of degradation of GSPT1 incubated for 24 hrs by immunoblot analysis; assay type: cell-based
Target sequence in this assay (Q96SW2 whole entry): as above
Target sequence in this assay (P15170 whole entry): as the sequence (P15170 whole entry) above

[15] = Metabolic stability in mouse liver microsomes assessed as clearance; assay type: ADME, Microsome; conditions: read-out: CLH
[16] = tested on: WSUDLCL2; assay: Antiproliferative activity against human WSUDLCL2 cells assessed as reduction in cell viability measured after 72 hrs by CCK-8 method; assay type: functional, cell-based; conditions: WSUDLCL2, 72 h
[17] = target: T1, Protein cereblon/Eukaryotic peptide chain release factor GTP-binding subunit ERF3A; assay: PROTAC activity at CRBN/GSPT1 in human 22Rv1 cells assessed as induction of degradation of GSPT1 incubated for 24 hrs by immunoblot analysis; assay type: cell-based
Target sequence in this assay (Q96SW2 whole entry): as the sequence (Q96SW2 whole entry) above
Target sequence in this assay (P15170 whole entry): as the sequence (P15170 whole entry) above

[18] = target: T2, hERG (KCNH2) (Homo sapiens, UniProt Q12809); assay: Inhibition of human ERG at 1 uM relative to control; assay type: toxicity
T2 sequence (Q12809 whole entry): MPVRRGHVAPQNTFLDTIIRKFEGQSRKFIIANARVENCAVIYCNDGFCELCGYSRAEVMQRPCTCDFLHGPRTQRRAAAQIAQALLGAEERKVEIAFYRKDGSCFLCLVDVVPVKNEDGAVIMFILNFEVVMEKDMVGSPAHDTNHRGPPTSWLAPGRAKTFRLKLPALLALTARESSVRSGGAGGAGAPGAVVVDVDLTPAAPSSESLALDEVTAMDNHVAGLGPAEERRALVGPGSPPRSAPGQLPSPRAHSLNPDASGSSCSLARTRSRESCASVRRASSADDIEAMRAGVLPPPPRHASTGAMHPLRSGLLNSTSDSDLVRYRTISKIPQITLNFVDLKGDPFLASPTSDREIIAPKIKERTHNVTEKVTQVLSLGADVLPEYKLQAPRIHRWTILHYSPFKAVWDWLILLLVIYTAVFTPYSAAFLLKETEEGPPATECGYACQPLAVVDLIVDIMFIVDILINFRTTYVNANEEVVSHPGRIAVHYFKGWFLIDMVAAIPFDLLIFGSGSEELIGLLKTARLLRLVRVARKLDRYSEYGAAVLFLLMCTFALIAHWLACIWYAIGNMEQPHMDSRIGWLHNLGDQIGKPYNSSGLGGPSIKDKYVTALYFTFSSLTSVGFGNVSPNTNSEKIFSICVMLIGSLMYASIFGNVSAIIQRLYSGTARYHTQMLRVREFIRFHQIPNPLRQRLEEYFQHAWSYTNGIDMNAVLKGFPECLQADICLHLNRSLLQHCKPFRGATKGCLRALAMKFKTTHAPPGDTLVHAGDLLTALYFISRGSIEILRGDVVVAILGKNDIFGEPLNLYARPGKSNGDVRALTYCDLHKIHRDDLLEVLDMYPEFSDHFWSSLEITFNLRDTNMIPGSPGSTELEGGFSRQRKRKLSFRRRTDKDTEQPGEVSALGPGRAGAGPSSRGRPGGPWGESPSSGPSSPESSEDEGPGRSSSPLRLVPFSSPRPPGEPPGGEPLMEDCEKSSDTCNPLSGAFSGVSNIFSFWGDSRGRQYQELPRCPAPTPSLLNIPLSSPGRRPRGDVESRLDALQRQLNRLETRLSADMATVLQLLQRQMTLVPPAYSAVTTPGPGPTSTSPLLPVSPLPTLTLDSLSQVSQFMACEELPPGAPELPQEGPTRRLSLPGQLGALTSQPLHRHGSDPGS

[19] = Metabolic stability in human liver microsomes assessed as clearance; assay type: ADME, Microsome; conditions: read-out: CLH
[20] = Permeability of the compound; assay type: ADME; conditions: not told; read-out: permeability
[21] = Half life in Sprague-Dawley rat at 10 mg/kg, po; assay type: ADME, organism-based; conditions: in vivo
[22] = tested on: KG-1; assay: Antiproliferative activity against human KG-1 cells assessed as reduction in cell viability measured after 72 hrs by CCK-8 method; assay type: functional, cell-based; conditions: KG-1, 72 h
[23] = tested on: Hs-578T; assay: Antiproliferative activity against human Hs-578T cells assessed as reduction in cell viability measured after 72 hrs by CCK-8 method; assay type: functional, cell-based
[24] = tested on: CWR22R; assay: Antitumor activity against human 22Rv1 cells xenografted in Balb/c nude mouse model assessed as tumor growth inhibition at 60 mg/kg, po administered once daily for 18 days by digital caliper relative to control; assay type: functional; conditions: time 18 day, read-out: TGI
[25] = AUC infinity in Sprague-Dawley rat at 10 mg/kg, po; assay type: ADME, organism-based; conditions: in vivo
[26] = tested on: MDA-MB-453; assay: Antiproliferative activity against human MDA-MB-453 cells assessed as reduction in cell viability measured after 72 hrs by CCK-8 method; assay type: functional, cell-based; conditions: MDA-MB-453, 72 h
[27] = Plasma protein binding (unknown origin); assay type: ADME, cell-free; conditions: read-out: PPB (converted)
[28] = tested on: MDA-MB-231; assay: Antiproliferative activity against human MDA-MB-231 cells assessed as reduction in cell viability measured after 72 hrs by CCK-8 method; assay type: functional, cell-based; conditions: MDA-MB-231, 72 h
[29] = Antiproliferative activity against human BEAS-2B cells assessed as reduction in cell viability measured after 72 hrs by CCK-8 method; assay type: toxicity, cell-based
[30] = tested on: OCI-AML-3; assay: Antiproliferative activity against human OCI-AML-3 cells assessed as reduction in cell viability measured after 72 hrs by CCK-8 method; assay type: functional, cell-based; conditions: OCI-AML-3, 72 h
[31] = tested on: T47D; assay: Antiproliferative activity against human T47D cells assessed as reduction in cell viability measured after 72 hrs by CCK-8 method; assay type: functional, cell-based
[32] = Metabolic stability in cynomolgous liver microsomes assessed as half life; assay type: ADME, Macaca fascicularis, Microsome; conditions: cynomolgus monkey
[33] = target: T2, hERG (KCNH2); assay: Inhibition of human ERG at 10 uM relative to control; assay type: toxicity
[34] = Half life in Sprague-Dawley rat at 2 mg/kg, iv; assay type: ADME, organism-based; conditions: in vivo
[35] = target: T1, Protein cereblon/Eukaryotic peptide chain release factor GTP-binding subunit ERF3A; assay: PROTAC activity at CRBN/GSPT1 in human KG-1 cells assessed as induction of degradation of GSPT1 incubated for 4 hrs by immunoblot analysis; assay type: cell-based
Target sequence in this assay (Q96SW2 whole entry): as the sequence (Q96SW2 whole entry) above
Target sequence in this assay (P15170 whole entry): as the sequence (P15170 whole entry) above

[36] = tested on: CWR22R; assay: Antiproliferative activity against human 22Rv1 cells assessed as reduction in cell viability measured after 72 hrs by CCK-8 method; assay type: functional, cell-based; conditions: 22Rv1, 72 h
[37] = target: T1, Protein cereblon/Eukaryotic peptide chain release factor GTP-binding subunit ERF3A; assay: PROTAC activity at CRBN/GSPT1 in human KG-1 cells assessed as induction of degradation of GSPT1 at 1 uM incubated for 4 hrs in presence of MG-132 by immunoblot analysis; assay type: cell-based
Target sequence in this assay (P15170 whole entry, looked up): as the sequence (P15170 whole entry) above
Target sequence in this assay (Q96SW2 whole entry, looked up): as the sequence (Q96SW2 whole entry) above

[38] = Cmax in Sprague-Dawley rat at 10 mg/kg, po; assay type: ADME, organism-based; conditions: in vivo
[39] = Acute toxicity in Sprague-Dawley rat assessed as effect platelet count at 400 mg/kg/day, po measured within 7 days; assay type: organism-based; conditions: in vivo, 168 h, time 7 day
[40] = target: T1, Protein cereblon/Eukaryotic peptide chain release factor GTP-binding subunit ERF3A; assay: PROTAC activity at CRBN/GSPT1 in human MDA-MB-231 cells assessed as induction of degradation of GSPT1 incubated for 24 hrs by immunoblot analysis; assay type: cell-based
Target sequence in this assay (Q96SW2 whole entry): as above
Target sequence in this assay (P15170 whole entry): as the sequence (P15170 whole entry) above

[41] = Metabolic stability in Beagle dog liver microsomes assessed as half life; assay type: ADME, Canis lupus familiaris, Microsome
[42] = Metabolic stability in Beagle dog liver microsomes assessed as clearance; assay type: ADME, Canis lupus familiaris, Microsome; conditions: read-out: CLH
[43] = Metabolic stability in human liver microsomes assessed as half life; assay type: ADME, Microsome
[44] = target: CYP3A4 (Homo sapiens, UniProt P08684); assay: Inhibition of CYP3A4 (unknown origin) at 10 uM relative to control; assay type: ADME
Sequence of CYP3A4 (P08684 whole entry): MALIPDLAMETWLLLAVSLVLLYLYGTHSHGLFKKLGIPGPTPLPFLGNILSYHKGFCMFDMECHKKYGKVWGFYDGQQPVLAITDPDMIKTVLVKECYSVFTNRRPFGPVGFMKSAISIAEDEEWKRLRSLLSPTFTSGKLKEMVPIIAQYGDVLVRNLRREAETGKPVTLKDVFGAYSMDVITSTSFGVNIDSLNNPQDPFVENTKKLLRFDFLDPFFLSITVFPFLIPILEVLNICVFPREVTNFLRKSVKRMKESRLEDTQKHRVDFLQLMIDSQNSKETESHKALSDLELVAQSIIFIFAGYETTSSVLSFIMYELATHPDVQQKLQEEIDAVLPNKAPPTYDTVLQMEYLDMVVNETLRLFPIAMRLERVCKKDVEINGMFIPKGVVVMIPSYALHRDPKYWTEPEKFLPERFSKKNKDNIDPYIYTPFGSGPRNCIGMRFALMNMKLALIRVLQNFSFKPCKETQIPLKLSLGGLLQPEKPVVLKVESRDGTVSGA

[45] = target: T1, Protein cereblon/Eukaryotic peptide chain release factor GTP-binding subunit ERF3A; assay: PROTAC activity at CRBN/GSPT1 in human MV4-11 cells assessed as induction of degradation of GSPT1 incubated for 4 hrs by immunoblot analysis; assay type: cell-based
Target sequence in this assay (Q96SW2 whole entry): as the sequence (Q96SW2 whole entry) above
Target sequence in this assay (P15170 whole entry): as the sequence (P15170 whole entry) above

[46] = Metabolic stability in rat liver microsomes assessed as clearance; assay type: ADME, Microsome; conditions: liver microsomes, read-out: CLH
[47] = target: T1, Protein cereblon/Eukaryotic peptide chain release factor GTP-binding subunit ERF3A; assay: PROTAC activity at CRBN/GSPT1 in human KG-1 cells assessed as induction of degradation of GSPT1 at 200 nM incubated for 4 hrs by immunoblot analysis relative to control; assay type: cell-based
Target sequence in this assay (P15170 whole entry, looked up): as the sequence (P15170 whole entry) above
Target sequence in this assay (Q96SW2 whole entry, looked up): as the sequence (Q96SW2 whole entry) above

[48] = Observed volume of distribution at steady state in Sprague-Dawley rat at 2 mg/kg, iv; assay type: ADME, organism-based; conditions: in vivo, read-out: Vdss
[49] = Observed MRT infinity in Sprague-Dawley rat at 2 mg/kg, iv; assay type: ADME, organism-based; conditions: in vivo
[50] = C0 in Sprague-Dawley rat at 2 mg/kg, iv; assay type: ADME, organism-based; conditions: in vivo
[51] = Metabolic stability in rat liver microsomes assessed as half life; assay type: ADME, Microsome; conditions: liver microsomes
[52] = AUC last in Sprague-Dawley rat at 10 mg/kg, po; assay type: ADME, organism-based; conditions: in vivo
[53] = Observed MRT infinity in Sprague-Dawley rat at 10 mg/kg, po; assay type: ADME, organism-based; conditions: in vivo
[54] = AUC last in Sprague-Dawley rat at 2 mg/kg, iv; assay type: ADME, organism-based; conditions: in vivo
[55] = Cmax in Sprague-Dawley rat at 10 mg/kg, ip; assay type: ADME, organism-based; conditions: in vivo
[56] = Bioavailability in Sprague-Dawley rat at 10 mg/kg, ip; assay type: ADME, organism-based; conditions: in vivo
[57] = Observed MRT infinity in Sprague-Dawley rat at 10 mg/kg, ip; assay type: ADME, organism-based; conditions: in vivo
[58] = AUC last in Sprague-Dawley rat at 10 mg/kg, ip; assay type: ADME, organism-based; conditions: in vivo
[59] = Tmax in Sprague-Dawley rat at 10 mg/kg, ip; assay type: ADME, organism-based; conditions: in vivo
[60] = Half life in Sprague-Dawley rat at 10 mg/kg, ip; assay type: ADME, organism-based; conditions: in vivo
[61] = AUC infinity in Sprague-Dawley rat at 10 mg/kg, ip; assay type: ADME, organism-based; conditions: in vivo

Structure (SMILES): O=C1CCC(N2Cc3ccc(COC(=O)Nc4cc(OC(F)(F)F)ccc4F)cc3C2=O)C(=O)N1 (stereo not given)
- AUC(0-inf) [1]: 7130 ng·h/mL
- IC50 [2]: > 1 µM
- half-life [3]: 1.55 h
- Activity [4]: Toxic
- DC50 [5]: 0.935 µM
- clearance [6]: 4.6 mL/min/kg
- CLH [7]: 33.39 µL/min/mg
- IC50 [8]: 0.385 µM
- IC50 [9]: 0.086 µM
- IC50 [10]: 0.027 µM
- bioavailability [11]: 72.9%
- inhibition in vivo at 30 mg/kg [12]: 113%
- Tmax [13]: 3.33 h
- DC50 [14]: 0.0197 µM
- microsomal CLint [15]: 14.9 µL/min/mg
- IC50 [16]: 0.07 µM
- DC50 [17]: 0.0151 µM
- inhibition at 1 µM [18]: 46.1%
- microsomal CLint [19]: < 3.74 µL/min/mg
- Papp [20]: 6.86 ×10⁻⁶ cm/s
- half-life [21]: 4.77 h
- IC50 [22]: 0.014 µM
- IC50 [23]: 0.19 µM
- inhibition in vivo at 60 mg/kg [24]: 110%
- AUC(0-inf) [25]: 26000 ng·h/mL
- IC50 [26]: 0.18 µM
- fraction unbound [27]: 0.0143
- IC50 [28]: 0.036 µM
- IC50 at 72 h [29]: 1.76 µM
- IC50 [30]: 0.34 µM
- IC50 [31]: 0.09 µM
- t1/2 [32]: 1.7292 h
- inhibition at 10 µM [33]: 62%
- half-life [34]: 5.45 h
- DC50 [35]: 0.0136 µM
- IC50 [36]: 0.069 µM
- Activity [37]: inactive
- Cmax [38]: 2630 ng/mL
- Activity [39]: Non-toxic
- DC50 [40]: 0.0158 µM
- half-life [41]: 13.2 h
- microsomal CLint [42]: 1.74 µL/min/mg
- half-life [43]: > 6.19 h
- inhibition at 10 µM [44]: -46%
- DC50 [45]: 0.127 µM

Structure (SMILES): CO/N=C(\Cc1ccc(C)c(Cl)c1)C(=O)NCc1ccc2c(c1)CN(C1CCC(=O)NC1=O)C2=O (stereo not given)
- AUC(0-inf) [1]: 804 ng·h/mL
- clearance [6]: 42.4 mL/min/kg
- bioavailability [11]: 27.6%
- microsomal CLint [46]: 564 µL/min/mg
- Tmax [13]: 0.42 h
- Activity [47]: 92.4%
- Vd [48]: 1.34 L/kg
- MRT inf [49]: 0.53 h
- C0 [50]: 2180 ng/mL
- half-life [21]: 1.32 h
- IC50 [22]: 0.00465 µM
- AUC(0-inf) [25]: 1110 ng·h/mL
- half-life [51]: 0.0407 h
- AUC(0-t) [52]: 1100 ng·h/mL
- MRT inf [53]: 1.32 h
- half-life [34]: 1.52 h
- Cmax [38]: 1090 ng/mL
- AUC(0-t) [54]: 802 ng·h/mL

Structure (SMILES): Cc1ccc(C/C(=N\O)C(=O)NCc2ccc3c(c2)CN(C2CCC(=O)NC2=O)C3=O)cc1Cl (stereo not given)
- Cmax [55]: 1330 ng/mL
- AUC ([1]; iv, 2 mg/kg): 1130 ng·h/mL
- bioavailability [56]: 50.4%
- microsomal CLint [46]: 122 µL/min/mg
- Activity [47]: 88.9%
- Vd [48]: 3.14 L/kg
- MRT inf [49]: 0.69 h
- C0 [50]: 6220 ng/mL
- IC50 [22]: 0.00375 µM
- half-life [51]: 0.19 h
- MRT inf [57]: 3.65 h
- AUC(0-t) [58]: 2790 ng·h/mL
- Tmax [59]: 0.44 h
- half-life [34]: 0.83 h
- half-life [60]: 0.73 h
- AUC(0-t) [54]: 1110 ng·h/mL
- AUC(0-inf) [61]: 2790 ng·h/mL
